Measured values: ChEMBL document CHEMBL4725307, “Topical 'dual-soft' glucocorticoid receptor agonist for dermatology” (Bioorg Med Chem Lett, 2020)
Blank lines part the entries; values can stand above or below the compound they belong to.

Key:
[1] = Half life in human whole blood; format: ADME, tissue-based
[2] = biological target: T1, Glucocorticoid receptor (Homo sapiens) (UniProt P04150); assay: Agonist activity at human glucocorticoid receptor assessed as inhibition of LPS-induced TNFalpha release in PBMC relative to control; format: tissue-based
T1 sequence (whole entry): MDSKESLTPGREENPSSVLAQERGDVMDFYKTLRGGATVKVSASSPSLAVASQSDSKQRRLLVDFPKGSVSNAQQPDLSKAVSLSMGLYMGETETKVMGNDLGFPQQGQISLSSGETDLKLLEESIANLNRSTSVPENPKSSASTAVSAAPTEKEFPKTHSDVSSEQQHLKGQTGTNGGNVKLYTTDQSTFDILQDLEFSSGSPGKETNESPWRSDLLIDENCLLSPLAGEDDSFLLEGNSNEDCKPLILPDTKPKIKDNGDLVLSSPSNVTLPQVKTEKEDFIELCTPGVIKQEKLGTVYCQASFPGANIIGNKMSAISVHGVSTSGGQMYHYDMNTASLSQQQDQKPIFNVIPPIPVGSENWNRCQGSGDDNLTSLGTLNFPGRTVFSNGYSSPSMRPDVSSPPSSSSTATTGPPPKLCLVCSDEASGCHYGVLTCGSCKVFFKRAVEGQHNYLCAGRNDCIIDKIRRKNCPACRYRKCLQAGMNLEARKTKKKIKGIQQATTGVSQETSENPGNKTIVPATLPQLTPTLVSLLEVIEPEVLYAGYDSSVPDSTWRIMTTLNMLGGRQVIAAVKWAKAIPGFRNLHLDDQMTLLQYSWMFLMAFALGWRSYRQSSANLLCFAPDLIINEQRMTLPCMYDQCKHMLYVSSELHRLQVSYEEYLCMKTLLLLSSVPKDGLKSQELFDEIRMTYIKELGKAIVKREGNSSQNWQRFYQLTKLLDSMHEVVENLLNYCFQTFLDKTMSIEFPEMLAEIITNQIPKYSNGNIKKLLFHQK

Glucocorticoid receptor = biological target: T2, Glucocorticoid receptor (Homo sapiens, UniProt P04150); assay: Agonist activity at human glucocorticoid receptor in PBMC assessed as inhibition of LPS-induced TNFalpha release; format: tissue-based
T2 sequence (P04150 whole entry): T1 sequence (whole entry)

[3] = Half life in cultured human keratinocytes; format: ADME, cell-based, Keratinocyte
[4] = Photostability of the compound; format: physicochemical
[5] = Drug metabolism in dog whole blood assessed as (3R)-3-(hydroxymethyl)-4-oxo-4-[(3S)-3-[[5-[(1R,2S)-1-(p-tolyl)-2-[(2,2,2-trifluoroacetyl)amino]propoxy]pyridine-2-carbonyl]amino]-1-piperidyl]butanoic acid metabolite formation; format: ADME, tissue-based, Canis lupus familiaris
[6] = Drug metabolism in human hepatocytes assessed as (3R)-3-(hydroxymethyl)-4-oxo-4-[(3S)-3-[[5-[(1R,2S)-1-(p-tolyl)-2-[(2,2,2-trifluoroacetyl)amino]propoxy]pyridine-2-carbonyl]amino]-1-piperidyl]butanoic acid metabolite formation; format: ADME, cell-based, Hepatocyte
[7] = Drug metabolism in pig hepatocytes assessed as (3R)-3-(hydroxymethyl)-4-oxo-4-[(3S)-3-[[5-[(1R,2S)-1-(p-tolyl)-2-[(2,2,2-trifluoroacetyl)amino]propoxy]pyridine-2-carbonyl]amino]-1-piperidyl]butanoic acid metabolite formation; format: ADME, cell-based, Sus scrofa, Hepatocyte
[8] = Drug metabolism in pig whole blood assessed as (3R)-3-(hydroxymethyl)-4-oxo-4-[(3S)-3-[[5-[(1R,2S)-1-(p-tolyl)-2-[(2,2,2-trifluoroacetyl)amino]propoxy]pyridine-2-carbonyl]amino]-1-piperidyl]butanoic acid metabolite formation; format: ADME, tissue-based, Sus scrofa
[9] = Drug metabolism in rat hepatocytes assessed as (3R)-3-(hydroxymethyl)-4-oxo-4-[(3S)-3-[[5-[(1R,2S)-1-(p-tolyl)-2-[(2,2,2-trifluoroacetyl)amino]propoxy]pyridine-2-carbonyl]amino]-1-piperidyl]butanoic acid metabolite formation; format: ADME, cell-based, Hepatocyte
[10] = Drug metabolism in dog hepatocytes assessed as (3R)-3-(hydroxymethyl)-4-oxo-4-[(3S)-3-[[5-[(1R,2S)-1-(p-tolyl)-2-[(2,2,2-trifluoroacetyl)amino]propoxy]pyridine-2-carbonyl]amino]-1-piperidyl]butanoic acid metabolite formation; format: ADME, cell-based, Canis lupus familiaris, Hepatocyte
[11] = Drug metabolism in rat whole blood assessed as (3R)-3-(hydroxymethyl)-4-oxo-4-[(3S)-3-[[5-[(1R,2S)-1-(p-tolyl)-2-[(2,2,2-trifluoroacetyl)amino]propoxy]pyridine-2-carbonyl]amino]-1-piperidyl]butanoic acid metabolite formation; format: ADME, tissue-based
[12] = Chemical stability assessed as parent compound remaining at pH 7 and 37 degreeC measured after 16 hrs; format: physicochemical; conditions: buffer, read-out: Stabilty
[13] = Drug metabolism in human whole blood assessed as (3R)-3-(hydroxymethyl)-4-oxo-4-[(3S)-3-[[5-[(1R,2S)-1-(p-tolyl)-2-[(2,2,2-trifluoroacetyl)amino]propoxy]pyridine-2-carbonyl]amino]-1-piperidyl]butanoic acid metabolite formation; format: ADME, tissue-based
[14] = Chemical stability assessed as parent compound remaining at pH 5.5 and 37 degreeC measured after 16 hrs; format: physicochemical; conditions: buffer, read-out: Stabilty
[15] = biological target: Voltage-gated inwardly rectifying potassium channel KCNH2 (Homo sapiens, UniProt Q12809); assay: Inhibition of human ERG
Chain of Voltage-gated inwardly rectifying potassium channel KCNH2 (Q12809 whole entry): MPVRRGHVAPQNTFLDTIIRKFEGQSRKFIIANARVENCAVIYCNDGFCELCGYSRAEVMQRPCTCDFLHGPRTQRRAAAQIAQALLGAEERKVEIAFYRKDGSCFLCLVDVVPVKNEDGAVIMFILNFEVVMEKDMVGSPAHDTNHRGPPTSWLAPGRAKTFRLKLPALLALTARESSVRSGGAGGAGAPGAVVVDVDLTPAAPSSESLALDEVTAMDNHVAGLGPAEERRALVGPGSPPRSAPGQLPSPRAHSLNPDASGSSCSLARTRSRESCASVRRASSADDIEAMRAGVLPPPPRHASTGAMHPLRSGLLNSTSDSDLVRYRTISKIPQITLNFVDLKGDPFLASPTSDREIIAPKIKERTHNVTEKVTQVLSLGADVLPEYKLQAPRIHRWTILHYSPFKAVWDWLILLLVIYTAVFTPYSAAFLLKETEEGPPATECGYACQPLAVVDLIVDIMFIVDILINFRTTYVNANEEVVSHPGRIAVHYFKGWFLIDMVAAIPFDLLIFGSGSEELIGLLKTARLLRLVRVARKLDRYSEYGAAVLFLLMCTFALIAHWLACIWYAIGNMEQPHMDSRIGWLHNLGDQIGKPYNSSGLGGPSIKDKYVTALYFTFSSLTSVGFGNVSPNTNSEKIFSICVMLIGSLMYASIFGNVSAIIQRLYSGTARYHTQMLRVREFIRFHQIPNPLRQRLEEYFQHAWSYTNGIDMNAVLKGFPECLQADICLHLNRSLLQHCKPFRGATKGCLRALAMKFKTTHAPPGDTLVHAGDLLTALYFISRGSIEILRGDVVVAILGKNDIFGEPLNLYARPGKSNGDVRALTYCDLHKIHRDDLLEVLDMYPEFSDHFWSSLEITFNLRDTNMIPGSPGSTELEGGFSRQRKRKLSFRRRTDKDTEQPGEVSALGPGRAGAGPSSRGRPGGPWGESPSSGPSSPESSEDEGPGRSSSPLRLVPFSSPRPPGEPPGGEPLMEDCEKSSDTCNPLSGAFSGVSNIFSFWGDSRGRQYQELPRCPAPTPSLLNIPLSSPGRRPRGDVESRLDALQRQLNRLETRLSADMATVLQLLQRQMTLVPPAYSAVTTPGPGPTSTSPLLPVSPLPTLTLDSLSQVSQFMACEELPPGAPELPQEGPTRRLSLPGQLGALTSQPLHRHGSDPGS

Homo sapiens [16] = species: Homo sapiens; assay: Selectivity ratio for agonist activity at androgen receptor (unknown origin) to agonist activity at glucocorticoid receptor (unknown origin)
Homo sapiens [17] = species: Homo sapiens; assay: Selectivity ratio for agonist activity at mineralocorticoid receptor (unknown origin) to agonist activity at glucocorticoid receptor (unknown origin)
Cytochrome P450 = assay: Inhibition of CYP450 (unknown origin); format: protein assay; conditions: human
Homo sapiens [18] = species: Homo sapiens; assay: Selectivity ratio for agonist activity at progesterone receptor (unknown origin) to agonist activity at glucocorticoid receptor (unknown origin)
[19] = Hepatic clearance in iv dosed rat; format: ADME, organism-based; conditions: in vivo

IC50 (Glucocorticoid receptor): 79 nM
Structure (SMILES): Cc1ccc([C@@H](Oc2ccc(C(=O)N[C@H]3CCCN(C(=O)[C@H]4COC(=O)C4)C3)cc2)[C@H](C)NC(=O)C(F)(F)F)cc1

half-life [3]: > 6 h
half-life [1]: < 0.167 h
Structure (SMILES): Cc1ccc([C@@H](Oc2ccc(C(=O)N[C@@H]3CCCN(C(=O)[C@H]4COC(=O)C4)C3)nc2)[C@H](C)NC(=O)C(F)(F)F)cc1

half-life [1]: 0.283 h
Structure (SMILES): Cc1ccc([C@@H](Oc2ccc(C(=O)N[C@@H]3CCCN(C(=O)[C@@H]4COC(=O)C4)C3)nc2)[C@H](C)NC(=O)C(F)(F)F)cc1

Stabilty [4]: Stable
Drug metabolism [5]: Metabolite_Detected
Drug metabolism [6]: Metabolite_Detected
Drug metabolism [7]: Metabolite_Detected
Drug metabolism [8]: Metabolite_Detected
Drug metabolism [9]: Metabolite_Detected
half-life [3]: > 6 h
Drug metabolism [10]: Metabolite_Detected
half-life [1]: < 0.167 h
Drug metabolism [11]: Metabolite_Detected
remaining at 16 h [12]: 82%
Drug metabolism [13]: Metabolite_Detected
remaining at 16 h [14]: > 95%
Structure (SMILES): Cc1ccc([C@@H](Oc2ccc(C(=O)N[C@H]3CCCN(C(=O)[C@H]4COC(=O)C4)C3)nc2)[C@H](C)NC(=O)C(F)(F)F)cc1

half-life [3]: > 6 h
half-life [1]: 1.7 h
Structure (SMILES): Cc1ccc([C@@H](Oc2ccc(C(=O)N[C@H]3CCCN(C(=O)[C@@H]4COC(=O)C4)C3)nc2)[C@H](C)NC(=O)C(F)(F)F)cc1

half-life [3]: > 6 h
half-life [1]: > 2 h
Structure (SMILES): Cc1ccc([C@@H](Oc2ccc(C(=O)N[C@H]3CCCN(C(=O)[C@H]4CCC(=O)O4)C3)nc2)[C@H](C)NC(=O)C(F)(F)F)cc1

half-life [1]: 0.85 h
Structure (SMILES): Cc1ccc([C@@H](Oc2ccc(C(=O)N[C@@H]3CCCN(C(=O)[C@H]4CCC(=O)O4)C3)nc2)[C@H](C)NC(=O)C(F)(F)F)cc1

The remaining lines, values behind:

Structure (SMILES): Cc1ccc([C@@H](Oc2ccc(C(=O)N[C@@H]3CCCN(C(=O)[C@@H]4CCC(=O)O4)C3)nc2)[C@H](C)NC(=O)C(F)(F)F)cc1
half-life [1]: 0.733 h

Structure (SMILES): C[C@H](NC(=O)[C@H]1CCCO1)[C@H](Oc1ccc(C(=O)O[C@H]2CCCN(C(=O)[C@@H](CO)CC(=O)O)C2)cc1)c1ccc(C2CC2)cc1
fold change (FC) [2]: > 100

Structure (SMILES): Cc1ccc([C@@H](Oc2ccc3c(cnn3-c3ccc(F)cc3)c2)[C@H](C)NC(=O)C(F)(F)F)cc1
IC50 (Glucocorticoid receptor): 2 nM

Structure (SMILES): C[C@H](NC(=O)C(F)(F)F)[C@H](Oc1ccc(C(=O)O[C@H]2CCCN(C(=O)[C@H]3COC(=O)C3)C2)cc1)c1ccc(C2CC2)cc1
IC50 (Glucocorticoid receptor): 1 nM

Structure (SMILES): C[C@H](NC(=O)[C@H]1CCCO1)[C@H](Oc1ccc(C(=O)O[C@H]2CCCN(C(=O)[C@H]3COC(=O)C3)C2)cc1)c1ccc(C2CC2)cc1
inhibition (INH) [15]: Not Active
Selectivity ratio (Homo sapiens [16]): > 100
IC50 (Glucocorticoid receptor): 2 nM
Selectivity ratio (Homo sapiens [17]): > 100
inhibition (INH) (Cytochrome P450): Not Active
Selectivity ratio (Homo sapiens [18]): > 100
CLH [19]: 500 mL/min/kg

Structure (SMILES): Cc1ccc([C@@H](Oc2ccc(C(=O)Nc3ccccc3)nc2)[C@H](C)NC(=O)C(F)(F)F)cc1
IC50 (Glucocorticoid receptor): 26 nM

Structure (SMILES): Cc1ccc([C@@H](Oc2ccc(C(=O)N[C@H]3CCCN(C(=O)[C@@H]4CCC(=O)O4)C3)nc2)[C@H](C)NC(=O)C(F)(F)F)cc1
half-life [1]: 1.38 h

Structure (SMILES): C[C@H](NC(=O)[C@@H]1CCCO1)[C@H](Oc1ccc(C(=O)O[C@H]2CCCN(C(=O)[C@H]3COC(=O)C3)C2)cc1)c1ccc(C2CC2)cc1
IC50 (Glucocorticoid receptor): 22 nM
